{
  "source": "patent US20090148424A1",
  "about": "“Reversibly immortalized mammalian liver cells and use thereof” (priority 2004, published 2009)",
  "key": {"reverted CYNK-1 cells": {"tested_on": "reverted CYNK-1 cells", "experiment": "Ganciclovir sensitivity of reverted CYNK-1 cells", "format": "cell-based, human", "description": "Two hundred CYNK-1 cells (deposited with International Patent Organism Depository, National Institute of Advanced Industrial Science and Technology, address: AIST Tsukuba Central 6, 1-1, Higashi 1-Chome, Tsukuba-shi, Ibaraki-ken, 305-8566 Japan, deposited date: Mar. 10, 2004, accession number: FERM BP-08657) were inoculated in a 96-well plate, cultured in CS-C serum free culture medium alone or CS-C serum free culture media containing various concentrations of ganciclovir (5, 10, 20, 50 or 100 μM) and then cell proliferation was investigated by MTT assay (see […]., Immunol. Methods, 65, 55, 1983). […] All of the cells died within 10 days."}, "CYNK-1 cell": {"tested_on": "CYNK-1 cell", "experiment": "Ganciclovir sensitivity of CYNK-1 cell (MTT assay)", "format": "cell-based, human", "conditions": "one-week cultivation with 5 μM of GCV", "description": "Two hundred CYNK-1 cells (deposited with International Patent Organism Depository, National Institute of Advanced Industrial Science and Technology, address: AIST Tsukuba Central 6, 1-1, Higashi 1-Chome, Tsukuba-shi, Ibaraki-ken, 305-8566 Japan, deposited date: Mar. 10, 2004, accession number: FERM BP-08657) were inoculated in a 96-well plate, cultured in CS-C serum free culture medium alone or CS-C serum free culture media containing various concentrations of ganciclovir (5, 10, 20, 50 or 100 μM) and then cell proliferation was investigated by MTT assay (see Mcsmann T. J., Immunol. Methods, 65, 55, 1983).\nCell viability is shown in FIG. 7 as relative sensitivity. Ganciclovir sensitivity of the CYNK-1 cell (deposited with International Patent Organism Depository, National Institute of Advanced Industrial Science and Technology, address: AIST Tsukuba Central 6, 1-1, Higashi 1-Chome Tsukuba-shi, Ibaraki-ken, 305-8566 Japan, deposited date: Mar. 10, 2004, accession number: FERM BP-08657) depends on the concentration of ganciclovir."}},
  "data": [
    {"smiles": "Nc1nc(O)c2ncn(COC(CO)CO)c2n1", "note": "[GCV, ganciclovir]", "values": [
      {"measurement": "time until all of the cells died", "setting": "reverted CYNK-1 cells; 5 μM of GCV", "result": "≤ 10", "unit": "days"},
      {"measurement": "effect on cell proliferation / viability", "setting": "reverted CYNK-1 cells; one-week cultivation in the presence of 5 μM of GCV", "result": "stopped cell proliferation and some of the cells died"},
      {"measurement": "effect on cell proliferation / viability", "setting": "CYNK-1 cell", "result": "stopped cell proliferation and some of the cells died"}
    ]}
  ]
}
